Laboratory results reported in ChEMBL document CHEMBL6071123, “Design, synthesis and biological evaluation of 5-amino-1H-pyrazole-4-carboxamide derivatives as pan-FGFR covalent inhibitors” (Eur J Med Chem, 2024).
Activity calls are given as the source filed them. The calls are words filed in the database; no cut-off is given here.

What was measured:
[1] = target: Fibroblast growth factor receptor 1 (Homo sapiens, UniProt P11362); assay: biochemical; assay type: cell-based
Description: Inhibition of N-terminal 6-his tagged human wild type FGFR1 (458 to 765 residues) expressed in Escherichia coli BL21 cells using Tyr 04 peptide as substrate incubated for 1 hr by FRET based Z-lyte assay

[2] = tested on: NCI-H520; assay: Antiproliferative activity against human NCI-H520 cells measured after 3 days by CCK-8 method; assay type: functional, cell-based; details: NCI-H520, 72 h
[3] = Antiproliferative activity against human KATO III stomach cancer cell line measured after 3 days by CCK-8 method; assay type: functional, cell-based; details: 72 h
[4] = tested on: SNU-16; assay: Antiproliferative activity against human SNU-16 cells measured after 3 days by CCK-8 method; assay type: functional, cell-based; details: SNU-16, 72 h
[5] = Induction of apoptosis in human KATO III stomach cancer cell line assessed as necrotic cells at 100 nM incubated for 48 hrs by annexin V-FITC/PI staining based flow cytometry analysis (reference value: 0.072%); assay type: functional
[6] = Induction of apoptosis in human KATO III stomach cancer cell line assessed as viable cells at 10 nM incubated for 48 hrs by annexin V-FITC/PI staining based flow cytometry analysis (reference value: 90.1%); assay type: functional; details: read-out: Activity
[7] = target: T1, Fibroblast growth factor receptor 2 (Homo sapiens, UniProt P21802); assay: Inhibition of FGFR2 phosphorylation in human SNU-16 measured after 2 hrs by Western blot analysis; assay type: cell-based; details: dose 0-300 nM
Target sequence in this assay (P21802 22-821 limits assumed): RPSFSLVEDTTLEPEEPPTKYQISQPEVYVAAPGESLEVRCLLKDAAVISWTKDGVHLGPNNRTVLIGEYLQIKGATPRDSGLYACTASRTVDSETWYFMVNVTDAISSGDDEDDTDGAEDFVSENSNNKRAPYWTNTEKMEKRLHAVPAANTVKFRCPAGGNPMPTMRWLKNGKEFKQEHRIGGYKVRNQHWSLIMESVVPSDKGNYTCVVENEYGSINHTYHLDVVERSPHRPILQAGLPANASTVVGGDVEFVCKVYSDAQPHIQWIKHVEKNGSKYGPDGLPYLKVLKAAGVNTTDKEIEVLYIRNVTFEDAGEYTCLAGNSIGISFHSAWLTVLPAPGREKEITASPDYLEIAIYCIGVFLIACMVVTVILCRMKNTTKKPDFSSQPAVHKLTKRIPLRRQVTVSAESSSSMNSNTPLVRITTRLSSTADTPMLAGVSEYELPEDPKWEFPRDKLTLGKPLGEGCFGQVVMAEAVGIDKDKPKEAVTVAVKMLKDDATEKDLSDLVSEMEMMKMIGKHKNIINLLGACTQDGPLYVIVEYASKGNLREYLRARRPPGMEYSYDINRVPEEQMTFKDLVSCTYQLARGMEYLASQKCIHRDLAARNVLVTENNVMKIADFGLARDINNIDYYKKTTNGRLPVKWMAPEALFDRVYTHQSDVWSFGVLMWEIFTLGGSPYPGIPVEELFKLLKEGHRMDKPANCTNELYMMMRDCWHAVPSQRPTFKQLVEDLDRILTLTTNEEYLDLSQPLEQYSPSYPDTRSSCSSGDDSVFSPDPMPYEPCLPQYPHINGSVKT

[8] = Induction of apoptosis in human KATO III stomach cancer cell line assessed as necrotic cells at 1000 nM incubated for 48 hrs by annexin V-FITC/PI staining based flow cytometry analysis (reference value: 0.072%); assay type: functional
[9] = Induction of apoptosis in human KATO III stomach cancer cell line assessed as viable cells at 100 nM incubated for 48 hrs by annexin V-FITC/PI staining based flow cytometry analysis (reference value: 90.1%); assay type: functional; details: read-out: Activity
[10] = Induction of apoptosis in human KATO III stomach cancer cell line assessed as early apoptotic cells at 1000 nM incubated for 48 hrs by annexin V-FITC/PI staining based flow cytometry analysis (reference value: 3.40%); assay type: functional
[11] = tested on: KATO III; assay: Induction of cell cycle arrest in human KATO III stomach cancer cell line assessed as accumulation of cells at G1 phase measured after 24 hrs by PI staining based flow cytometry analysis; assay type: functional; details: dose 10-1000 nM
[12] = target: T1, Fibroblast growth factor receptor 2; assay: biochemical; assay type: cell-based
Target sequence in this assay (P21802 whole entry): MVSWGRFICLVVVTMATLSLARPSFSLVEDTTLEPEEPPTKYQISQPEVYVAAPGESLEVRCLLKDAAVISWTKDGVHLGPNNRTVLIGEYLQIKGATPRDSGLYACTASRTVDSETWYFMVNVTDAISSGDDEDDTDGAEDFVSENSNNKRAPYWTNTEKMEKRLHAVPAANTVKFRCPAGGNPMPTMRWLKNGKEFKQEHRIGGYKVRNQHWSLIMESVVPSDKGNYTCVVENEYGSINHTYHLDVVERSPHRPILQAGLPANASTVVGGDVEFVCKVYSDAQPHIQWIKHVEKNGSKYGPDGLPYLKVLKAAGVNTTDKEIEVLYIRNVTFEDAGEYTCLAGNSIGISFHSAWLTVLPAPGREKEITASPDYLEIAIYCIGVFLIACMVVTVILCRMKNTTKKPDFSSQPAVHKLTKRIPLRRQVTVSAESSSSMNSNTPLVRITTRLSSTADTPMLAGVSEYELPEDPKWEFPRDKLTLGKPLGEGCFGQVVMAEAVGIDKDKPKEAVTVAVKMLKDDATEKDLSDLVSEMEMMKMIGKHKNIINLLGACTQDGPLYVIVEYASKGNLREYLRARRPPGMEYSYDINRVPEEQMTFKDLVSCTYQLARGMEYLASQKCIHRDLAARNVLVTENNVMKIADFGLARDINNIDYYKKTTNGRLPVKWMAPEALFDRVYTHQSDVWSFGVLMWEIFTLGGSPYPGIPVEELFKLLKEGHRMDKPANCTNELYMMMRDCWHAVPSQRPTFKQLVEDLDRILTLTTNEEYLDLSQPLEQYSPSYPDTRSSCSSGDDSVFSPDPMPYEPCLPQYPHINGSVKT
Description: Inhibition of N-terminal 6-his tagged human wild type FGFR2 (458 to 768 residues) expressed in Escherichia coli BL21 cells using Tyr 04 peptide as substrate incubated for 1 hr by FRET based Z-lyte assay

[13] = Induction of cell cycle arrest in human KATO III stomach cancer cell line assessed as accumulation of cells at G1 phase at 1000 nM measured after 24 hrs by PI staining based flow cytometry analysis (reference value: 29.8%); assay type: functional
[14] = Induction of cell cycle arrest in human KATO III stomach cancer cell line assessed as accumulation of cells at G1 phase at 100 nM measured after 24 hrs by PI staining based flow cytometry analysis (reference value: 29.8%); assay type: functional
[15] = Induction of apoptosis in human KATO III stomach cancer cell line assessed as late apoptotic cells at 10 nM incubated for 48 hrs by annexin V-FITC/PI staining based flow cytometry analysis (reference value: 6.39%); assay type: functional
[16] = Induction of apoptosis in human KATO III stomach cancer cell line assessed as late apoptotic cells at 1000 nM incubated for 48 hrs by annexin V-FITC/PI staining based flow cytometry analysis (reference value: 6.39%); assay type: functional
[17] = Induction of cell cycle arrest in human KATO III stomach cancer cell line assessed as accumulation of cells at G2 phase at 1000 nM measured after 24 hrs by PI staining based flow cytometry analysis (reference value: 42.5%); assay type: functional
[18] = Induction of apoptosis in human KATO III stomach cancer cell line assessed as viable cells at 1000 nM incubated for 48 hrs by annexin V-FITC/PI staining based flow cytometry analysis (reference value: 90.1%); assay type: functional; details: read-out: Activity
[19] = Induction of apoptosis in human KATO III stomach cancer cell line assessed as early apoptotic cells at 10 nM incubated for 48 hrs by annexin V-FITC/PI staining based flow cytometry analysis (reference value: 3.40%); assay type: functional
[20] = tested on: BaF3; assay: Inhibition of AKT phosphorylation in mouse BaF3 cells harbouring FGFR2 V564F mutant measured after 6 hrs by Western blot analysis; assay type: cell-based; details: dose 0-1000 nM
[21] = target: Fibroblast growth factor receptor 2 (Homo sapiens, UniProt P21802, V564F); assay: Inhibition of FGFR2 V564F mutant (unknown origin) using (Poly (4:1 Glu, Tyr) peptide as substrate by ADP-Glo kinase assay
[22] = Metabolic stability in human liver microsomes assessed as half life at 1 uM measured upto 45 mins in presence of NADPH by HPLC-MS/MS analysis; assay type: ADME, Microsome
[23] = Induction of apoptosis in human KATO III stomach cancer cell line assessed as necrotic cells at 10 nM incubated for 48 hrs by annexin V-FITC/PI staining based flow cytometry analysis (reference value: 0.072%); assay type: functional
[24] = Induction of cell cycle arrest in human KATO III stomach cancer cell line assessed as accumulation of cells at S phase at 10 nM measured after 24 hrs by PI staining based flow cytometry analysis (reference value: 28.3%); assay type: functional
[25] = target: Fibroblast growth factor receptor 3 (Homo sapiens, UniProt P22607); assay: Inhibition of FGFR3 (unknown origin) using Tyr 04 peptide as substrate incubated for 1 hr by FRET based Z-lyte assay
[26] = Metabolic stability in human liver microsomes assessed as intrinsic clearance at 1 uM measured upto 45 mins in presence of NADPH by HPLC-MS/MS analysis; assay type: ADME, Microsome; details: read-out: CLH
[27] = tested on: BaF3; assay: Antiproliferative activity against mouse BaF3 cells harbouring FGFR2 V564F mutant assessed as reduction in cell viability incubated for 72 hrs by CCK-8 method; assay type: functional, cell-based; details: BaF3, 72 h
[28] = target: Fibroblast growth factor receptor 2 (Mus musculus) (UniProt P21803); assay: Inhibition of FGFR2 phosphorylation in mouse BaF3 cells harbouring FGFR2 V564F mutant measured after 6 hrs by Western blot analysis; assay type: cell-based; details: dose 0-1000 nM
[29] = Induction of cell cycle arrest in human KATO III stomach cancer cell line assessed as accumulation of cells at G1 phase at 10 nM measured after 24 hrs by PI staining based flow cytometry analysis (reference value: 29.8%); assay type: functional
[30] = Induction of apoptosis in human KATO III stomach cancer cell line assessed as late apoptotic cells at 100 nM incubated for 48 hrs by annexin V-FITC/PI staining based flow cytometry analysis (reference value: 6.39%); assay type: functional
[31] = tested on: SNU-16; assay: Inhibition of AKT phosphorylation in human SNU-16 measured after 2 hrs by Western blot analysis; assay type: cell-based; details: dose 0-300 nM
[32] = Induction of apoptosis in human KATO III stomach cancer cell line assessed as early apoptotic cells at 100 nM incubated for 48 hrs by annexin V-FITC/PI staining based flow cytometry analysis (reference value: 3.40%); assay type: functional
[33] = Induction of cell cycle arrest in human KATO III stomach cancer cell line assessed as accumulation of cells at S phase at 100 nM measured after 24 hrs by PI staining based flow cytometry analysis (reference value: 28.3%); assay type: functional
[34] = tested on: BaF3; assay: Effect on AKT protein level in mouse BaF3 cells harbouring FGFR2 V564F mutant at 0 to 1000 nM measured after 6 hrs by Western blot analysis; assay type: functional, cell-based; details: dose 0-1000 nM
[35] = tested on: BaF3; assay: Effect on FGFR2 protein level in mouse BaF3 cells harbouring FGFR2 V564F mutant at 0 to 1000 nM measured after 6 hrs by Western blot analysis; assay type: functional, cell-based; details: dose 0-1000 nM
[36] = Metabolic stability in human liver microsomes assessed as hepatic clearance at 1 uM measured upto 45 mins in presence of NADPH by HPLC-MS/MS analysis; assay type: ADME, Microsome
[37] = Metabolic stability in human liver microsomes assessed as hepatic extraction ratio at 1 uM measured upto 45 mins in presence of NADPH by HPLC-MS/MS analysis; assay type: ADME, Microsome; details: read-out: ERH

Chain of Fibroblast growth factor receptor 1 (P11362 whole entry): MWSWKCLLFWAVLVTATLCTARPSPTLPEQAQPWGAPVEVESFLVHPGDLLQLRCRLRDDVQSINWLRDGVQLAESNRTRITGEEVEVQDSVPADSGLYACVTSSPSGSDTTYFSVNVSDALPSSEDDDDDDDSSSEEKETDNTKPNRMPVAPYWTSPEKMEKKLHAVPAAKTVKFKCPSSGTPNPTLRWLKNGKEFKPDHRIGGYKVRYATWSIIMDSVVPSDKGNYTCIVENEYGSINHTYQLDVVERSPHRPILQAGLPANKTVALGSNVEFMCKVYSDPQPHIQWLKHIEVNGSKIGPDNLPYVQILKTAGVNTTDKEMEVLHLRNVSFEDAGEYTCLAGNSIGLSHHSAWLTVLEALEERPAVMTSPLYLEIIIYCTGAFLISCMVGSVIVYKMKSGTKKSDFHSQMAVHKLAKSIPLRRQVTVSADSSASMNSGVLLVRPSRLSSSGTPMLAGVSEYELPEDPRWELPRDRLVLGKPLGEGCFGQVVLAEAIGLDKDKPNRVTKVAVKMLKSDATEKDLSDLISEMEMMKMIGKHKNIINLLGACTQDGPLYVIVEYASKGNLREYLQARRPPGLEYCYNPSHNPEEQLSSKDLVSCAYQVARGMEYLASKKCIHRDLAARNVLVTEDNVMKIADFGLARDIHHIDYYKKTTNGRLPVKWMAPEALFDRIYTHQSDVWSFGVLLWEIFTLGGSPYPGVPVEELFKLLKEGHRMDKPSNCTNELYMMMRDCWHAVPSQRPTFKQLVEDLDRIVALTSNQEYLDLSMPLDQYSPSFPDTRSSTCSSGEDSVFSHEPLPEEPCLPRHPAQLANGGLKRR
Chain of Fibroblast growth factor receptor 2 (Mus musculus) (P21803 whole entry): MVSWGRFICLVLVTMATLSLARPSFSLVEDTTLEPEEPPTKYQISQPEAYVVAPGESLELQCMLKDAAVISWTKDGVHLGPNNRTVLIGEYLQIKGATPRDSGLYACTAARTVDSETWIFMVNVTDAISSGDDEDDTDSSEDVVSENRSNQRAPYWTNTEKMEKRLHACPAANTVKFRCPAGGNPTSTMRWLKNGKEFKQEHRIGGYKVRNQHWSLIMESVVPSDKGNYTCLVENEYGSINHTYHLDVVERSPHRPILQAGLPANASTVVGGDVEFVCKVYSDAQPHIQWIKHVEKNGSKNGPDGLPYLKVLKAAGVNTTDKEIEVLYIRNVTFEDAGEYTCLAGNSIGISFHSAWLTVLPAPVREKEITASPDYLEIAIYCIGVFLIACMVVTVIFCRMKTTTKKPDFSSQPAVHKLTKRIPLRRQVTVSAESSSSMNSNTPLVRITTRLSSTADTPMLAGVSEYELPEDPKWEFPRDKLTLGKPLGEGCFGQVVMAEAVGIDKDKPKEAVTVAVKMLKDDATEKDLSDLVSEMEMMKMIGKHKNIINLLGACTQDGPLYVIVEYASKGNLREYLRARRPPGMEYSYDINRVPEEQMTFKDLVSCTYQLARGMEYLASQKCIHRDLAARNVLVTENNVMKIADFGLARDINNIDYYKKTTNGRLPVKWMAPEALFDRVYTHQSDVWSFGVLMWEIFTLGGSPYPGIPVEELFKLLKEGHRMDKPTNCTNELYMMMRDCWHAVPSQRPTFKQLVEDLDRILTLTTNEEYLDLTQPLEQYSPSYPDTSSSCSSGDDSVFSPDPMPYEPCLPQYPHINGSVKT
Chain of Fibroblast growth factor receptor 2 (Homo sapiens, UniProt P21802, V564F) (P21802 22-821 V564F limits assumed): as the sequence (P21802 22-821 limits assumed) above, with V543F counted along it
Chain of Fibroblast growth factor receptor 3 (P22607 whole entry): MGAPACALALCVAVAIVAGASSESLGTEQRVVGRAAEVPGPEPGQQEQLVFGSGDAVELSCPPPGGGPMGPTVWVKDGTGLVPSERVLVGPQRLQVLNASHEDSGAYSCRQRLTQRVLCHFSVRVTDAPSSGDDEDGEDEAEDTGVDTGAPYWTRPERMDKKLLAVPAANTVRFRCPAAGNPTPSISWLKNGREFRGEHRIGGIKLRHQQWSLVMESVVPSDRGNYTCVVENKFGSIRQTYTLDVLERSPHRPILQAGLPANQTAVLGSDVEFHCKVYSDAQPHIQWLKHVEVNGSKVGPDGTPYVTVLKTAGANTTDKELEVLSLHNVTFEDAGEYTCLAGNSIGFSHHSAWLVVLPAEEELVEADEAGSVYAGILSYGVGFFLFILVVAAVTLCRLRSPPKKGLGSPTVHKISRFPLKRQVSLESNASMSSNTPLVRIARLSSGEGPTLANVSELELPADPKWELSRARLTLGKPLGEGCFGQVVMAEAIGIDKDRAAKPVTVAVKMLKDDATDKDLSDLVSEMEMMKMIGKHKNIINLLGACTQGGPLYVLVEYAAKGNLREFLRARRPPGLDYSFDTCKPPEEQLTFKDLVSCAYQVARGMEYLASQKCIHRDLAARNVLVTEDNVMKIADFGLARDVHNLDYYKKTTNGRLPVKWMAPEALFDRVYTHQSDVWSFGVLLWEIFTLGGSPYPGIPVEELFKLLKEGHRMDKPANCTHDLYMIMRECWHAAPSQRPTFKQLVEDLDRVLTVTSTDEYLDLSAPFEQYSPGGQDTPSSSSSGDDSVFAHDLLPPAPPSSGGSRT

C=CC(=O)Nc1ccc(Cn2nc(C#Cc3cc(OC)cc(OC)c3)c3c(N)ncnc32)cc1
IC50 [1]: 660 nM

C=CC(=O)Nc1ccc(Cn2nc(-c3ccc(Oc4nccc(C)n4)c(F)c3)c3c(N)ncnc32)cc1
IC50 [1]: > 10000 nM

C=CC(=O)Nc1ccc(CCn2nc(C#Cc3cc(OC)cc(OC)c3)c3c(N)ncnc32)cc1
IC50 [1]: 3460 nM

C=CC(=O)Nc1ccc(Cn2nc(-c3cc4cc(C)cc(OC)c4s3)c3c(N)ncnc32)cc1
IC50 [1]: 23 nM

C=CC(=O)Nc1cccc(Cn2nc(C#Cc3c(F)cc4[nH]c(C)nc4c3F)c(C(N)=O)c2NCC)c1
IC50 [1]: > 10000 nM

C=CC(=O)Nc1ccc(Cn2nc(C#Cc3ccc4oc(C)nc4c3)c(C(N)=O)c2N)cc1
IC50 [1]: 610 nM

C=CC(=O)Nc1ccc(CCCn2nc(C#Cc3cc(OC)cc(OC)c3)c3c(N)ncnc32)cc1
IC50 [1]: 1590 nM

C=CC(=O)Nc1cccc(Cn2nc(C#Cc3c(F)cc4[nH]c(C)nc4c3F)c(C(N)=O)c2NC)c1
IC50 [1]: > 10000 nM

C=CC(=O)N1CC[C@H](n2nc(C#Cc3cc(OC)cc(OC)c3)c3c(N)ncnc32)C1 [FUTIBATINIB]
IC50 [2]: 14 nM | IC50 [3]: 4 nM | IC50 [4]: 0.44 nM

C=CC(=O)Nc1ccc(CCCCn2nc(C#Cc3cc(OC)cc(OC)c3)c3c(N)ncnc32)cc1
IC50 [1]: 2340 nM

C=CC(=O)Nc1ccc(Cn2nc(C#Cc3ccc4[nH]c(C)nc4c3)c3c(N)ncnc32)cc1
IC50 [1]: 680 nM

C=CC(=O)Nc1cccc(Cn2nc(C#Cc3c(F)cc4[nH]c(C)nc4c3F)c(C(N)=O)c2NCCOC)c1
IC50 [1]: 2910 nM

C=CC(=O)Nc1ccc(Cn2nc(C#Cc3c(F)cc4[nH]c(C)nc4c3F)c(C(N)=O)c2N)cc1
IC50 [1]: 130 nM

C=CC(=O)Nc1cccc(Cn2nc(C#Cc3c(F)cc4[nH]c(C)nc4c3F)c(C(N)=O)c2N)c1
Activity [5]: 0.27% | viability at 0.01 µM [6]: 86.7% | inhibition [7]: Dose-Dependent Effect | Activity [8]: 0.085% | viability at 0.1 µM [9]: 82.4% | Activity [10]: 10.1% | Activity [11]: Dose-Dependent Effect | IC50 [2]: 73 nM | IC50 [12]: 41 nM | Activity [13]: 66.4% | IC50 [3]: 59 nM | Activity [14]: 59.4% | Activity [15]: 7.38% | Activity [16]: 12.7% | Activity [17]: 35.7% | viability at 1 µM [18]: 77.1% | Activity [19]: 5.84% | inhibition [20]: Dose-Dependent Effect | IC50 [21]: 62 nM | half-life at 1 µM [22]: 46.4 min | Activity [23]: 0.065% | Activity [24]: 25.5% | IC50 [25]: 99 nM | CLint scaled at 1 µM [26]: 34.5 mL/min/kg | IC50 [27]: 87 nM | inhibition [28]: Dose-Dependent Effect | Activity [29]: 35.3% | Activity [30]: 8.53% | inhibition [31]: Dose-Dependent Effect | Activity [32]: 8.85% | Activity [33]: 3.33% | Activity [34]: Active | IC50 [4]: 19 nM | Activity [35]: Active | CLhep predicted at 1 µM [36]: 12.9 mL/min/kg

O=C(c1ccc(F)cc1)C1CCN(CCn2c(=O)[nH]c3ccccc3c2=O)CC1 [KETANSERIN]
half-life at 1 µM [22]: 43.7 min | CLint scaled at 1 µM [26]: 36.7 mL/min/kg | CLhep predicted at 1 µM [36]: 13.2 mL/min/kg | hepatic extraction ratio at 0.75 h, 1 µM [37]: 0.639

C=CC(=O)Nc1ccc(Cn2nc(C#Cc3ccc4[nH]c(C)nc4c3)c(C(N)=O)c2N)cc1
IC50 [1]: 320 nM

C=CC(=O)Nc1ccc(Cn2nc(C#Cc3ccc4sc(C)nc4c3)c(C(N)=O)c2N)cc1
IC50 [1]: 950 nM

C=CC(=O)Nc1ccc(Cn2nc(C#Cc3ccc(-c4c[nH]c(C)n4)cc3)c(C(N)=O)c2N)cc1
IC50 [1]: > 10000 nM

C=CC(=O)Nc1ccc(Cn2nc(-c3ccc(Oc4ccccc4)cc3)c3c(N)ncnc32)cc1
IC50 [1]: 4800 nM

C=CC(=O)Nc1ccc(Cn2nc(-c3ccc4[nH]c(C)nc4c3)c3c(N)ncnc32)cc1
IC50 [1]: 2000 nM

C=CC(=O)Nc1ccccc1Cn1nc(C#Cc2ccc3[nH]c(C)nc3c2)c(C(N)=O)c1N
IC50 [1]: 880 nM
